Laboratory results: US20240398814A1, “KRAS INHIBITOR AND HDAC INHIBITOR COMBINATION FOR THE TREATMENT OF CANCER” (Northwestern University, priority 2023, published 2024)

Legend:
[1] = tested on: human LKB1 mutant lung cancer cells; test: FGFR1 resistance mechanism in human LKB1 mutant lung cancer cells; type: cell-based; details: 9 days of trametinib treatment, entinostat treatment days 3-9 (6 days total)
[2] = tested on: human KRAS, LKB1 mutant lung cancer cells; test: FGFR1 resistance mechanism in human KRAS, LKB1 mutant lung cancer cells; type: cell-based; details: 9 days of trametinib treatment, entinostat treatment days 3-9 (6 days total)
KL NSCLC GEMM = test: Short-term (5 day) in vivo entinostat treatment, qRT-PCR on lung tumors and liver; parameters: species or system mouse; details: 10 mg/kg/day entinostat, oral gavage, 5 days
Protocol: KL mice were intratracheally intubated with lentivirus expressing Cre recombinase to initiate tumorigenesis and imaged biweekly by BLI starting 4 weeks after Cre administration. When tumor burden in all mice was greater than 5×107 photons/see as determined by BLI, treatment was initiated. Mice were randomized and treated daily by oral gavage for 5 days with vehicle or 10 mg/kg entinostat. In vivo treatment doses were selected based on publications (39, 69-71). Entinostat was diluted to 1 mg/mL in vehicle (0.5% Methyl cellulose in water), vortexed, sonicated 10 minutes, and administered at 10 mg/kg. Drug and vehicle was administered starting at ˜9am daily throughout the duration of treatment. The experiment was terminated after 5 days of treatment, at which time primary lung tumors and liver were isolated by dissection and immediately flash frozen.
mRNA was prepared using the Quick-RNA Miniprep kit (Zymo Research), including DNase treatment. cDNA was synthesized from 2 μg of RNA using SuperScript III (Life Technologies), and qPCR was carried out with diluted cDNA, appropriate primers, and SYBR Green PCR master mix (ThermoFisher Scientific) using a C1000 Thermal Cycler (BioRad). Relative mRNA levels were calculated using the delta Ct method, using Tbp as an internal control.
Next, pharmacological inhibition of HDAC3 was assessed for impacting HRCG expression in vivo as observed in cell culture experiments (FIG. 12B, 18D-G). Lung tumorigenesis was initiated in KL GEMM mice, and disease growth was monitored over time using bioluminescence imaging (BLI) potentiated by the Rosa26^LSL-luferase genetic allele. When tumor burden was established in all mice (BLI >5×10^7 photons/sec), mice were randomized and treatment was initiated. Mice were treated daily for 5 days with vehicle or 10 mg/kg/day entinostat administered by oral gavage, after which lung tumors and liver were collected (FIG. 14C). Using qRT-PCR, gene expression of HDAC3 target genes in lung tumors and liver was assessed. […] To confirm that entinostat treatment was engaging on-target effects in the liver samples, the gene expression of canonical HDAC3 liver target genes Nr1d1 and Arntl was assessed (FIG. 14E).

## Nc1ccccc1NC(=O)c1ccc(CNC(=O)OCc2cccnc2)cc1 [entinostat]
[1]
  impact of Trametinib on the FGFR1 resistance mechanism: reverses the impact of Trametinib on the FGFR1 resistance mechanism
[2]
  impact of Trametinib on the FGFR1 resistance mechanism: reverses the impact of Trametinib on the FGFR1 resistance mechanism
KL NSCLC GEMM
  Cxc110 expression in vivo, lung tumors versus liver: induced upon entinostat treatment selectively in lung tumor cells
  HRCG expression in livers from the same mice: did not induce HRCG expression
  HRCG expression in lung tumors: potently induced HRCG expression
  Nr1d1 and Arntl gene expression in the liver: impacted Nr1d1 and Arntl gene expression in the liver
